The values that follow come from paper PMC4772543, “Immune responses to Mycobacterial heat shock protein 70 accompany self-reactivity to human BiP in rheumatoid arthritis” (Scientific Reports, 2016).

The target in one experiment is T1, HLA-DRB1*0401 (Homo sapiens, UniProt P01903+P01911, A100K/A169T/F76Y/I96L/K127E/L162R/M171V/N62H/P40V/Q125Y/R42H/S133A/S149N/S66Y/V115G/V209L/W38E).
T1 construct: Soluble DR4 molecules in the supernatant were collected and purified; made in house; host or cells: Drosophila S2 cells
The experiment is described as follows: HLA-DR4 peptide binding assay (competition with labelled HA peptide). The following applies: inhibition of labelled HA peptide (0.5 nM) binding to 40 nM purified DR4, 37 °C, 4 h. An excerpt: (§1) Figure 4 HLA-DR4 binding assay. (A) Binding activities between a HLA-DRB1*0401 and 0405 molecule and MycHSP70_287–306. Binding activities were estimated by the inhibition of peroxidase-labeled HA307–318 peptide binding to a HLA-DRB1 molecule. (B) Binding of MycHSP70_287–306 with alanine-substituted peptides to HLA-DRB1*0405 molecules. A MycHSP70_287–306-derived peptide in which an amino residue was substituted by an alanine residue. Inhibitory concentration 50% (IC50) was used as a measure of binding activity. *p < 0.05, **p < 0.01, ***p < 0.001.
(§2) The procedure to assess peptide binding to HLA-DRB1*0401 and 0405 was described in a previous study. In brief, HLA-DRA1B1*0401 and 0405 was cloned and transfected into S2 Drosophila cells. Soluble DR4 molecules in the supernatant were collected and purified through an affinity column coupled with the anti-DR antibody LB3.1. In the peptide binding assay, a 40 nM solution of purified DR4 was incubated at 37 °C for 4 h with the HA307–319 peptide (0.5 nM), which had been labeled at the N terminus with biotin. The indicated concentrations of the peptides were added as competitors to HA peptide binding. […] Bound biotinylated peptides were detected by an incubation with streptavidin-alkaline phosphatase. An automatic microplate reader (Bio-rad 550, Bio-rad) was used to measure optical density.

For a further experiment, the target named is T2, HLA-DRB1*0405 (Homo sapiens, UniProt P01903+P01911, A100R/A169T/D86S/F76Y/I96L/K127E/L162R/M171V/N62H/P40V/Q125Y/R42H/S133A/S149N/S66Y/V115G/V209L/W38E).
T2 construct: Soluble DR4 molecules in the supernatant were collected and purified; made in house; host or cells: Drosophila S2 cells
Described as above. The following applies: inhibition of labelled HA peptide (0.5 nM) binding to 40 nM purified DR4, 37 °C, 4 h.
Description: as §1, §2

Experiment [1] concerns splenic CD4+ T cells from CIA-induced DBA/1 J mice. Nature of the experiment: Splenic CD4+ T cell recall culture from CIA mice after oral peptide (proliferation, cytokine ELISA). It counts as cell-based, mouse. As to the method: (A,B) The MycHSP70_287–306 peptide or control (PBS alone) was orally administered to bovine type II collagen-immunized DBA/1 J mice after the occurrence of CIA for 5 continuous days (n = 12). Mice were sacrificed on day 35. Arthritis scores were measured by finger and paw swelling, and histological scores were measured by cell infiltration (C), pannus formation (P), and bone destruction (B). (C) Splenic CD4^+ T cell proliferation from CIA-induced DBA/1 J mice in response to a recall antigen (Ag) stimulation (MycHSP70_287–306 and BiP336–355 epitopes, and heat-denatured bovine type II collagen (BC II)). Proliferation was determined by[3]-H thymidine incorporation. (D) Serum anti-BiP and anti-BC II antibody titers were measured by ELISA. (E,F) Mouse IL-10 and TGF-beta1 concentrations in the splenic CD4^+ T cell culture were measured by ELISA.
HLA-DR4 transgenic mice were obtained from Taconic, immunized twice (day 0, 14) with 100 μg of MycHSP70 with the same volume of complete Freund’s adjuvant subcutaneously into the tails, and sacrificed on day 21. MACS-purified CD4^+ T cells (1 × 10^5/mL) were cultured with irradiated splenocytes (1 × 10^6/mL) and an antigen (10 μg/mL) in RPMI 1640 medium supplemented with 5% FCS, 2 mM L-glutamine, 100 U/ml penicillin, 100 μg/ml streptomycin, and 5 × 10^−5 M 2-mercaptoethanol in a humidified incubator at 37 °C, 5% CO2, for 72 h. ^3H-thymidine was pulsed to each well, cells were harvested after an 18-hour incubation, and analyzed with a scintillation counter.
CIA in the background of DBA/1 J female mice (SLC Japan) was performed and arthritis scores were acquired as previously described. In the therapeutic experiments, mice were administered 200 μg of MycHSP287–306 peptides orally for 5 continuous days following the onset of arthritis. Mice were sacrificed on day 35, and the CD4^+ T cell culture was performed as described above. Mouse cytokine concentrations in the supernatants were measured using a mouse IL-10 ELISA kit and mouse/human TGF-beta 1 ELISA kit (eBioscience) according to the manufacturer’s protocol. Tissue samples were embedded in paraffin wax after 10% formaldehyde fixation and decalcification. Sections were stained with hematoxylin and eosin. Synovial tissues were graded by mononuclear cell infiltration, pannus formation, and cartilage erosion, as described previously. All animal experiments were conducted in accordance with Institutional and National Guidelines, and the protocols were approved by the Ethical Committee on Animal Experiments of the University of Tokyo. […]
The experimental protocol was the same as Figure 6.
(A)(B)Mouse IL-17 and IFN-gamma concentrations in the splenic CD4+ T cell
culture was measured by ELISA (Mouse cytokine ELISA ready-set-go,
eBioscience) according to the manufacture’s protocol. […]

Where [2] appears, read: MycHSP70_287–306 and BiP336–355 recall stimulations, peptide-treated mice, ELISA.
Where [3] appears, read: mice given MycHSP70_287–306 orally vs PBS, 3H-thymidine.

Take DRTRKPFQSVIADTGISVSE [MycHSP70_287–306]: the “binding to HLA-DRB1*0401 molecule” value on HLA-DRB1*0401 was “bound”. For the same sequence, the “binding to HLA-DRB1*0405 molecule” value on HLA-DRB1*0405 is “bound”. For the same sequence, in experiment [1] (setting [2]), the “secretion of IL-10 from CD4+ T cells” value is “induced” and the “secretion of TGF-β1 from CD4+ T cells” value was “induced”. For the same sequence, in experiment [1] (setting [3]), the “proliferation of CD4+ T cells in response to BiP336–355 recall” value is “reduced” and the “proliferation of CD4+ T cells in response to MycHSP70_287–306 recall” value is listed as “reduced”. For the same sequence, the “bovine type II collagen-specific T cell proliferation” value in experiment [1] (mice given MycHSP70_287–306 orally vs PBS, heat-denatured BC II recall) was “suppressed”. For the same sequence, in experiment [1] (mouse IL-17 and IFN-gamma by ELISA, mice given peptide orally vs PBS (Supplementary Figure S2)), the “pro-inflammatory cytokine secretion from CD4+ T cells” value is given as “suppressed”.
